# Measured values: patent US9642829B2, “Antifungal compound and uses thereof” (The University of Hong Kong, priority 2012, dated 2017)
# Key:
# C. albicans = assay: Yeast-to-hypha (Y-H) transition inhibition under strong hyphal inducing conditions; type: cell-based, Candida albicans; parameters: Y-Hi (yeast-to-hypha inhibitory activity): unit: μg/ml
# Text: A large collection of small molecule library was screened in search of inhibitors of yeast-to-hypha transition (Y—H) of C. albicans using 384-well plate-high throughout assays (HTS). […] After subsequent studies with robust Y—H inducing conditions, we herein report a novel small molecule SM21 (FIG. 1) with strong Y-Hi activity and antifungal-activity.
# Several environmental conditions which are known to induce the hyphal formation of C. albicans such as serum, Lee's medium, Spider medium, temperature and 37° C. were used to test the ability of SM21 to inhibit Y—H transition. […] SM21 could act as a Y-Hi at a lower concentration of 0.025 μg/ml and 0.0.5 μg/ml for 10^4 cells/ml and 10^6 cells/ml of C. albicans, respectively. Chemical structure of SM21 is shown in (F)
# C. neoformans = assay: Antifungal susceptibility (MIC/MFC), CLSI criteria, reading after 72 h; type: cell-based, Cryptococcus neoformans; conditions: 0.5 McFarland inoculum (10^6 cells/ml)
# Experimental: Antifungal activity of the small molecules was evaluated using USA standards, Clinical and Laboratory Standards Institute (CLSI) criteria. In brief, inocula from 24 h Candida cultures on Sabourauds's dextore agar were standardized to a turbidity equivalent of 0.5 McFarland standards at 520 nm with a spectrophotometer. The suspensions were further diluted in Rosewell Park Memorial Institute (RPMI) 1640 medium (Life technologies, New York, USA) to yield an inoculum concentration of approximately 0.5 1×10^3 to 2.5 1×10^3 cells/ml. Minimum inhibitory concentration (MIC) and minimum fungicidal concentration (MFC) assay was performed in 96-well plates (Iwaki, Tokyo, Japan) and each of the Candida species was exposed to a double dilution of SM21. Amphotericin B was used as a positive control. All the experiments were preformed three occasions with duplicates for all isolates. The plates were incubated at 35° C. for 48 h to evaluate MIC. In the case of Cryotococcus neoformans, reading were taken after 72 h. Aforementioned assay was performed for C. albicans ATCC 90028, C. albicans SC5314 and 10 C. albicans clinical isolates. Moreover, MIC/MFC determination was carried out for other fungal species such as C. glabrata, C. krusei, C. tropicalis, C. parapsilosis, C. neoformans, Aspergillus fumigates and Penicillium marneffei. […]
# [1] = tested on: C. tropicalis drug resistant isolates; assay: Susceptibility of multidrug resistant clinical isolates, CLSI M27A broth microdilution; type: cell-based, Candida tropicalis; conditions: resistant to Itraconazole
# Text: Oral Biosciences laboratory has one of the largest collections of fungal isolates, particular that of Candida species in the world. In our previous studies, we have found multidrug resistant clinical isolates of Candida species against existing antifungals. In particular, some of these strains are resistant to best antifungal agents to date such as caspofungin, amphotericin B and fluconazole. Therefore, we performed antifungal susceptibility testing for SM21 against these drug resistant Candida isolates suing CLSI M27A brothmicrodultion assay and CLSI M44-A disc diffusion assay.
# C. glabrata biofilms = assay: Mono species Candida biofilm MIC, XTT assay; type: cell-based; conditions: 48 h C. glabrata biofilms
# Experimental: (§1) For instance, we have previously shown the resistance of Candida biofilms against amphotericin and caspofungin. Therefore, next using standard biofilm assays we have established in our laboratory, we examined the effect of SM21 against Candida biofilms. In brief, Candida cells were grown in SDA medium at 37° C. for 18 h. Then a loopful of the yeast was inoculated into the yeast nitrogen base (YNB; Difco) medium supplemented with 50 mM glucose in a rotary shaker at 75 rpm. After overnight broth culture, the yeasts were harvested in the late exponential growth phase and washed twice with 20 ml of phosphate buffer saline (PBS; pH 7.2. 0.1 M) prior to use in the biofilm studies. Candida biofilms were developed according to a previously published protocol. In brief, washed yeast cells were resuspended in YNB supplemented with 100 mM glucose and adjusted to an optical density of 0.38 at 520 nm (1×10^7 cells/ml). The standard cell suspension was used immediately to develop biofilms on commercially available presterilized, polystyrene, 96-well plate (IWAKI, Tokyo, Japan). At first, 100 μl of standardized cell suspension (1×10^7 cells/ml) was pipetted into each well of a microtiter plate and incubated for 1.5 h at 37° C. in a shaker at 75 rpm to permit yeast adherence to the well surface (adherence phase). For controls, a well of each microtiter plate was handled in an identical fashion except that no Candida suspension was added. Following the adhesion phase, the cell suspensions were aspirated, and each well washed with 100 μl of PBS to remove loosely adherent cells. 200 μl of YNB with 100 mM glucose were then pipetted into each of the washed wells and the plates incubated at 37° C. in a shaker at 75 rpm for 24 or 48 h. After biofilm growth phase microscopic examination of the cultures were performed to rule out contamination. Then, the suspending medium was aspirated and biofilms were washed with 100 μl PBS to remove the nonadherent cells. The stock solutions were diluted twofold with RPMI 1640 supplemented with 2% glucose to obtain SM21 concentration from 100 to 0.2 μg/ml drug concentrations. In parallel, other antifungal agents such as caspofungin (100 to 0.1 μg/ml) and amphotericin B (240 μg/ml to 0.225 μg/ml) was also prepared as describe above. A total of 100 μl of drug solution was added to the microtiter plate containing Candida biofilms. Biofilms were then incubated at 37° C. for 24 h with the antifungals and afterwards metabolic activity of fungal cells was determined by the XTT [2,3-bis(2-methoxy-4-nitro-5-sulfophenyl)-2H-tetrazolium-5-carboxanilide sodium salt] assay (17, 28). Candida biofilm MIC90 was defined as the lowest drug concentration with 90% reduction in opacity compared with the drug free control. Each experiment was repeated three times with four replicates.
# C. krusei biofilms = assay: Mono species Candida biofilm MIC, XTT assay; type: cell-based; conditions: 48 h C. krusei biofilms
# Experimental: as §1
# Vero cell line = assay: Cytotoxicity assay; type: cell-based; conditions: at effective concentration
# [2] = tested on: human gingival fibroblasts; assay: Cytotoxicity assay (MTT reduction, FIG. 6); type: cell-based; conditions: primary human gingival fibroblasts; at effective concentration
# Experimental: (§2) FIG. 6. MTT reduction assay of primary culture human monocytes, gingival fibroblasts and oral keratinocytes showing safety of SM21.
# (§3) Next, we used mouse model and treated the animals with 100 times of the effective dose (2 μg) i.e. 200 μg of SM21 twice a day for five days.
# human monocytes = assay: Cytotoxicity assay (MTT reduction, FIG. 6); type: cell-based; conditions: primary human monocytes; at effective concentration
# Experimental: as §2, §3
# human oral keratinocytes = assay: Cytotoxicity assay (MTT reduction, FIG. 6); type: cell-based; conditions: primary human oral keratinocytes; at effective concentration
# Experimental: as §2, §3
compound,measurement,setting,value
CN(C)c1ccc(/C=C/c2cc(C(C)(C)C)[o+]c(C(C)(C)C)c2)cc1.[O-][Cl+3]([O-])([O-])[O-] [SM21],Concentration acting as Y-Hi,C. albicans; 10^4 cells/ml of C. albicans,0.025 µg/mL
same,Y-Hi (yeast-to-hypha inhibitory activity),C. albicans; C. albicans 10^4 cells/ml,0.025
same,Y-Hi (yeast-to-hypha inhibitory activity),C. albicans; C. albicans 10^5 cells/ml,0.5
same,Y-Hi (yeast-to-hypha inhibitory activity),C. albicans; C. albicans 10^6 cells/ml,0.1
same,Y-Hi (yeast-to-hypha inhibitory activity),C. albicans; C. albicans 10^7 cells/ml,0.2
same,Morphology of C. albicans under hyphal inducing conditions,"C. albicans; incubated with SM21 at Y-Hi concentration, serum, Lee's medium, Spider medium, 37° C.",yeast morphology
same,Susceptibility (MIC90),C. neoformans,0.4 µg/mL
same,MIC,[1]; C. tropicalis T789,1 µg/mL
same,MIC,[1]; C. tropicalis T1148,0.5 µg/mL
same,MIC,[1]; C. tropicalis T1427,1 µg/mL
same,Minimum inhibitory concentration of 48 h Candida biofilms,C. glabrata biofilms,25 µg/mL
same,Minimum inhibitory concentration of 48 h Candida biofilms,C. krusei biofilms,25 µg/mL
same,Cytotoxicity,Vero cell line,no cytotoxicity
same,Cytotoxicity,[2],no cytotoxicity
same,Cytotoxicity,human monocytes,no cytotoxicity
same,Cytotoxicity,human oral keratinocytes,no cytotoxicity
